Measured values taken from patent US4859673A, “Amide derivatives and antiallergic agents containing the same” (Terumo Kabushiki Kaisha, priority 1986, dated 1989).

Tested on: passive cutaneous anaphylaxis reaction (PCA reaction)
Experiment: PCA reaction-inhibitory effects in rats (passive cutaneous anaphylaxis, oral administration)
Type: in vivo, Female Sprague-Dawley strain rats
Conditions: 1 hour before challenge
Method: DNP-ascaris (1 mg) prepared by combining a swine ascaris extract with 2,4-dinitrophenyl sulfate was mixe with 20 mg of aluminum hydroxide gel. The mixture was administered to rats subcutaneously on the back, and at the same time the animals were intraperitoneally given 2×10^10 dead Bordetella pertussis respectively. The same procedures were repeated after 14 days, and blood sample was obtained after 21 days to produce antisera.
Female Sprague-Dawley strain rats (8 weeks old) were sensitized by subcutaneously administering 0.1 ml of 1:256 diluted antisera (titer=1024)respectively on the grained back. After 48 hours, groups of four rats were orally given the amide derivatives produced in the examples above at various concentrations. After one hour, the rats were challenged by intravenously administering a 0.5% physiological saline solution of Evans Blue containing 1 mg of the NDP-ascaris from the tail. After 30 minutes, the animal was sacrificed by bleeding and the portion of the skin with the dye exuded was cut off. The cut skin was treated with 1N-KOH solution, and the dye was extracted by adding 9 ml of 0.6N-phosphoric acid-acetone (5:13) mixture. The supernatant from centrifugal separation was measured for absorbancy at 620 nm to determine amount of the dye. Percent inhibition at each of the concentrations of the amide derivatives was calculated in comparison with amount of the dye for control group. Results are shown in Table-I. Percent inhibition of tranilast, an antiallergic agent commercially available from Kissei Pharmaceutical Co., Ltd. under the trade name of Rizaben against PCA reaction was also shown in Table-I. As shown in Table-I, the amide derivatives of the invention produced high PCA reaction-inhibitory effects.

Compound | Inhibition (%) mean ± SE, PCA reaction (30 mg/kg) [%] | Inhibition (%) mean ± SE, PCA reaction (100 mg/kg) [%] | Inhibition (%) mean ± SE, PCA reaction (10 mg/kg) [%] | Inhibition (%) mean ± SE, PCA reaction (200 mg/kg) [%] | Inhibition (%) mean ± SE, PCA reaction (300 mg/kg) [%]
COc1cc(/C=C/C=C/C(=O)NCCN2CCC(OC(c3ccccc3)c3ccccc3)CC2)ccc1OCc1ccccc1 [Example 1, 1-[2-(5-(3-methoxy-4-benzyloxyphenyl)-2,4-pentadienoyl)aminoethyl]-4-diphenylmethoxypiperidine] | 0 ± 20 | 50 ± 14 |  |  | 
COc1cc(/C=C/C=C/C(=O)NCCN2CCC(OC(c3ccccc3)c3ccccc3)CC2)ccc1OC1CCCO1 (stereo not drawn) [Example 2, 1-[2-(5-(3-methoxy-4-(2-tetrahydrofuranyl)oxyphenyl)-2,4-pentadienoyl)aminoethyl]-4-diphenylmethoxypiperidine] | 71 ± 6 |  | 51 ± 18 |  | 
CCOCOc1ccc(/C=C/C=C/C(=O)NCCN2CCC(OC(c3ccccc3)c3ccccc3)CC2)cc1OC [Example 3, 1-[2-(5-(3-methoxy-4-ethoxymethoxyphenyl)-2,4-pentadienoyl)aminoethyl]-4-diphenylmethoxypiperidine] | 55 ± 9 | 78 ± 8 |  |  | 
COc1ccc(/C=C/C(=O)Nc2ccccc2C(=O)O)cc1OC [Tranilast, reference compound] |  | 37 ± 8 |  | 40 ± 10 | 42 ± 5
